For three compounds, inhibition, Activity and zone of inhibition results are on record in ChEMBL document CHEMBL1150105, “Polytolypin, a new antifungal triterpenoid from the coprophilous fungus Polytolypa hystricis” (1995).

Assay [1] has as its system Ascobolus. Kind of assay: Antifungal activity against Ascobolus furfuraceus NRRL 6460 at 100 ug/disk by standard disk assay. The assay is classed as functional.
The subject of assay [2] is Candida albicans. Kind of assay: Antifungal activity against Candida albicans ATCC 14053 at 80 ug /disk by standard disk assay. It is filed as functional. The note with it: read-out: IZ.

Activity calls are given as the source filed them. No cut-off for these calls is given here.

By inhibition is commonly meant the change of the read-out against control, counted positive when it falls. Low values mean a response near the control, high ones a response far below the control. In assay [1], `CC(=O)CC1(O)C(=O)c2cc3c(c4c(C)cc(O)c(c24)C1=O)OC(C)C3(C)C` (centres undefined) registered an inhibition at 100 µg/disc of 47%.

Take `Cc1cc(O)c2c3c(cc4c(c13)OC(C)C4(C)C)C(=O)/C(=N\C1C(=O)c3cc4c(c5c(C)cc(O)c(c35)C1=O)OC(C)C4(C)C)C2=O` (centres undefined): the outcome in assay [1] was inactive.

The compound `CC(C)[C@H]1CC[C@@H]2[C@]1(C)CC[C@]1(C)C3=CC[C@H]4[C@](C)(C(=O)O)[C@@H](O)[C@H](O)[C@@H](O)[C@]4(C(=O)O)[C@H]3CC[C@@]21C` [POLYTOLYPIN] returned an inhibition at 100 µg/disc in assay [1] of 47%. For the same compound, in assay [2], the zone of inhibition at 80 µg/disc worked out at 11 mm.
